According to patent US20220125877A1, “METHOD FOR TREATING COLORECTAL CANCER” (SUN YAT-SEN UNIVERSITY, priority 2019, published 2022):
pIC50: −log10 of the molar value.

Tests used:
[1] = test system: KRAS wildtype CRC cells CaCO2; experiment: Cell viability (CCK-8 method); format: cell-based; settings: Homo sapiens, Caco-2; CCK8, FIG. 10
Description: (§1) The cells were inoculated on a plate according to the concentration of 5000 cells/well (48-well plate, 200 μl per well). The cells were treated with different ways according to the experimental requirements, and 10 μl CCK8 solution was added after a period of time. The cells were incubated for 1 h in an incubator; 200 μl supernatant were absorbed into a 96-well ELISA plate to determine OD450 with a microplate reader.
(§2) (2) Metformin with a gradient concentration was used in vitro to treat KRAS wildtype colorectal cancer cell lines SW48 and CaCO2, KRAS G13D-mutation colorectal cancer cell lines HCT-116 and LoVo, as well as KRAS G12V-mutation colorectal cancer cell lines SW480 and SW620. In addition, the metformin with a gradient concentration was used to treat the KRAS wildtype colorectal cancer cell line SW48 transfected with KRAS G12V, KRAS G13D and KRAS G12D plasmids.
(§3) 5 μM and 10 μM lansoprazole were used to treat HCT-116 and LoVo simultaneously; metformin was used to treat the cells at the same time for 48 h; the cell viability was detected by CCK8.

[2] = test system: KRAS wildtype CRC cells SW48; experiment: Cell viability (CCK-8 method); format: cell-based; settings: Homo sapiens, CCK8, FIG. 10
Description: as §1, §2, §3

[3] = test system: KRAS G13D, G12D and G12V mutation colorectal cancer cells; experiment: Cell viability, metformin with a gradient concentration; format: cell-based, human; settings: FIG. 6
[4] = test system: KRAS wildtype colorectal cancer cells; experiment: as above; format: cell-based, human; settings: FIG. 6
Description: as §1, §2

[5] = test system: KRAS mutation CRC cells LoVo; experiment: Apoptosis, Annexin V/PI double staining; format: cell-based, human; settings: 2.5 mM, 5 mM and 10 mM, 24 h
Description: (§4) Annexin V/PI double staining was used on the KRAS wildtype cell SW48 and KRAS (G13D) mutation cells LoVo to detect the effect of metformin on the apoptosis of colorectal cancer cells.
(§5) 1) The cells were inoculated on a 6-well plate and subjected to adherence growth for 12 h, starvation treatment over the night, and treated with the addition of an agent for 24 h, then the cells were digested by EDTA-free trypsin and washed for once with PBS without immobilization.
(§6) 2) The cells were resuspended with the addition of 300 μl Binding Buffer, then 3 μl Annexin V-FITC and 3 μl Propidium Iodide (PI) were added and mixed well for incubation for 30 min in the dark at room temperature, then the cells were determined by a flow cytometry.
(§7) 3) Flow cytometry detection of antibodies: apoptosis kit (A211-02) was purchased from KeyGEN; the detection kit (558662) for cell cycle PI simple staining was purchased from BD company.

[6] = test system: KRAS wildtype CRC cells SW48; experiment: Apoptosis, Annexin V/PI double staining; format: cell-based, human; settings: 2.5 mM, 5 mM and 10 mM, 24 h
Description: as §4, §5, §6, §7

[7] = test system: LoVo cell line with knock-down KRAS protein; experiment: Cell cycle in KRAS knock-down cells; format: cell-based, human; settings: relative to LoVo, FIG. 8D
Description: 1) KRAS interference lentivirus (sh-KRAS) was constructed and packaged by Shanghai Genechem Co., LTD.
2) LoVo cells were subcultured to a 6-well plate (about 1×10^5/well), when cells were subjected to adherence growth, and the degree of cell fusion was not greater than 50%, fresh culture solution was replaced ahead of 2 h, and 10 μg/mL lentivirus infection enhancer polybrene was added. Multiplicity of Infection (MOI) of LoVo was about 20; lentivirus was added according to the formula: adding amount of lentivirus per well (μl)=MOI×cell population/titer (TU/ml)×1000. The culture solution was replaced after 16-18 h, and 1 μM puromycin was conventionally added for screening the cell line whose RNA stable expression was interfered by KRAS.
1) The cells were inoculated onto a 6-well plate, and subjected to adherence growth for 12 h, then starvation treatment over the night, and treated with the addition of an agent for 24 h, then the cells were digested and washed for 3 times with PBS and centrifuged to discard supernatant; −20° C. pre-cooled 70% ethanol was added dropwise, and the cells were mixed well by vortex, and immobilized over the night at −20° C.
2) The cells were horizontally centrifuged for 10 min at 2000 rpm to discard the supernatant; then the cells were washed with PBS for 2-3 times to remove the residual ethanol with centrifugation for 5 min each time. […]

[8] = test system: SW48 KRAS (G13D) cell line; experiment: Proliferation / cell cycle in CRISPR/Cas9 KRAS (G13D) cells; format: cell-based, human; settings: relative to SW48, FIG. 8E
[9] = Concentration of metformin in tumor tissues by mass spectrometry; format: in vivo; settings: KRAS mutation vs KRAS wildtype tumor tissues, FIG. 11F
Source text: The concentration of metformin in KRAS wildtype and mutation tumor tissues was detected by mass spectrometry.

[10] = test system: colorectal cancer cells (LoVo, SW48) with altered MATE1; experiment: Proliferation with MATE1 over-expressed on LoVo or interfered on SW48; format: cell-based, human; settings: FIGS. 12E-F
SW48 CDX = experiment: Cell-derived xenograft (CDX), tumor growth; format: in vivo, BALB/c nude mice; settings: 200 mg/kg in water, 30 d, vs control group, FIGS. 12G-L
Description: The tumor inhibition effect of MATE1 with metformin was verified by a cell-derived xenograft transplantation model (CDX) experiment.
(§8) In the CDX, CRISPR/Cas9 was first utilized to build a KRAS^G13DSW48 cell line; MATE1 was knocked down by shRNA lentivirus transduction in SW48 to build a sh-MATE1-SW48 cell line; lentivirus was infected in KRAS^G13DSW48 cells to over-express MATE1. 1×10^6 cells were suspended in a basement membrane matrix (100 μl basement membrane matrix and 100 μl PBS) and subcutaneously injected into BALB/c nude mice. CDX mice were randomly distributed into a metformin treatment group and a control group. 200 mg/kg (equivalent to human 1000 mg) metformin was dissolved into water, and respectively taken by the 4 groups of animals; then the tumor size was measured; 30 d later, the tumor tissues were killed and weighed.

[11] = test system: KRAS^G13DSW48 graft with MATE1 over-expressed; experiment: Cell-derived xenograft (CDX), tumor growth; format: in vivo, BALB/c nude mice; settings: 200 mg/kg in water, 30 d, compared with the KRAS^G13DSW48 tumor, FIGS. 12G-L
Description: as §8

SW48+sh-MATE1 CDX = experiment: Cell-derived xenograft (CDX), tumor growth; format: in vivo, BALB/c nude mice; settings: 200 mg/kg in water, 30 d, MATE1 knocked down, FIGS. 12G-L
Description: as §8

CN(C)C(=N)N=C(N)N [metformin]
pIC50 [1]: 1.05 | pIC50 [2]: 1.04 | effect on cell viability [3]: has an inhibiting effect | effect on cell viability [4]: has no effect | apoptosis [5]: do not accelerate the apoptosis | apoptosis [6]: do not accelerate the apoptosis | inhibiting effect on transformation from G1 phase to phase S after interference of KRAS (G13D) expression [7]: down-regulate the inhibiting effect | inhibiting effect on proliferation of tumor cells with cell cycle after KRAS (G13D) mutation [8]: enhances the inhibiting effect | concentration of metformin in tumor tissues [9]: higher than that in the KRAS wildtype tumor tissues | inhibiting effect on proliferation with down-regulated expression of MATE1 [10]: accelerating the inhibiting effect | anti-tumor effect (tumor growth) (SW48 CDX): no obvious anti-tumor effect | anti-tumor effect (tumor growth) [11]: has no effect | tumor growth (SW48+sh-MATE1 CDX): significantly inhibits the tumor growth
